# Laboratory results reported in a melting point compilation (Tetko et al.; mined from patent text by program, amines drawn as free bases though some values may be those of a salt).
row,SMILES,melting point [°C]
1,CC(C)(C)c1ccc(COc2cc(C(O)C#Cc3ccc(C(=O)O)cc3)cc3c2C(C)(C)CCC3(C)C)cc1 (stereo not drawn),254
2,COC(=O)c1ccc(CSC)nc1C1=NC(C)(C(C)C)C(=O)N1 (stereo not drawn),114 to 115
3,CCCCNC(=O)OCC(=O)O,83 to 84
4,O=C(NCCCBr)c1cnn(-c2nc(-c3cccc(C(F)(F)F)c3)cs2)c1C(F)(F)F,187 to 190
5,c1ccc(N2c3ccccc3[C@@H]3CN(CC4CCC4)CC[C@H]32)cc1,76.5 to 77
6,COc1cccc(-n2c(=O)oc3ccc(-c4ccc(F)cc4F)cc3c2=O)c1,160 to 161
7,COc1ccc(CC([N+](=O)[O-])C2(CCCCc3ccc(C)cc3)OCCO2)cc1OC (stereo not drawn),89 to 91
8,CCN(CC)C(=O)c1cc([N+](=O)[O-])cnc1CBr,62 to 64
9,CC(C)N(C(=S)Nc1ccc(NC(=S)N(C(C)C)C(C)C)cc1)C(C)C,185
10,Oc1ccc(-c2cc3cc(O)ccc3o2)c(Br)c1,195
11,N#Cc1cnn(-c2ccc(C(F)(F)F)cc2[N+](=O)[O-])c1N,234 to 236
12,COc1ccc(C2CC(=O)OC(=O)C2)cc1,144 to 149
13,N#CN=C(Nc1ccc(C#N)cc1O)Nc1cccc(Cl)c1Cl,155 to 156
14,COC1CCC(OC)C2=C1C=CC(=O)C2 (stereo not drawn),99 to 100
15,O=C(NCCOc1ccc(CC(Sc2nc3ccccc3o2)C(=O)O)cc1)c1ccc(-c2ccccn2)cc1 (stereo not drawn),66 to 67
16,O=C(O)CCC(=O)N1CCN(c2ccccn2)CC1,125 to 127
17,COc1cc(CC(COC(C)=O)NC(=O)c2ccccc2)cc2c1OC(C)(C)C2 (stereo not drawn),141 to 142

# More lines, now with the values ahead:
row,melting point [°C],SMILES
1,175 to 177,CCCCN=C(O)c1c(Sc2ccc([N+](=O)[O-])cc2)c(Sc2ccccc2)c(Sc2ccccc2)c(Sc2ccc([N+](=O)[O-])cc2)c1C(=O)O
2,55 to 56,CS(=O)(=O)O[C@@H](COC(c1ccccc1)(c1ccccc1)c1ccccc1)C[C@@H]1c2ccccc2Oc2ccc(F)cc2[C@H]1N=[N+]=[N-]
3,> 235,O=C(O)c1ccc2c(Cl)ccnc2c1
4,176 to 177,COc1cccc(Cn2cc3c(-c4cccc(C(=O)NCCC#N)c4)cccc3n2)c1
5,194 to 197,CS(=O)(=O)c1ccc(-n2cc(C(F)(F)F)nc2-c2ccsc2)cc1
6,114 to 116,CCOC(=O)CCC1OC(=O)C(O)=C1c1ccccc1 (stereo not drawn)
7,114,Cc1cc(C)cc(NC(=O)CO)c1
8,122 to 127,[N-]=[N+]=NS(=O)(=O)c1cccc(C(=O)O)c1
9,110 to 113,COc1ccc(C2(c3ccc(OC)cc3)CN(c3ccc(S(C)(=O)=O)cc3)C(c3ccc(Cl)cc3)=N2)cc1
10,141,CCOC(=O)c1ccc(-c2ccc(OCCCNC3CC3)c(-c3ccc4c(c3)C(C)(C)CCC4(C)C)c2)cc1
11,125 to 127,OCc1cc(Cl)c(O)cc1F
12,95 to 96,O=C(O)CCCCCc1nn(-c2ccc(F)cc2)c2c1CCCC2
13,182 to 183,CCOCn1c(N(C(C)=O)c2cc(C)cc(C)c2)c(CC)c(=O)[nH]c1=O
14,209 to 212,COCc1c(C=NO)ncc2[nH]c3cccc(Cc4ccccc4Cl)c3c12
15,243 to 244,O=C(Nc1nnn[nH]1)c1oc2ccc(Cl)cc2c1OCC1CC1
16,90,O=c1nc(NCCCCc2ncccc2Cl)[nH]cc1C(O)c1ccncc1 (stereo not drawn)
17,248 to 249,Cc1c(-c2ccncc2)[nH]c2c1C(=O)CCC2
18,230,CC1CC2C3CC(Cl)C4=CC(=O)C=CC4(C)C3(Cl)C(O)CC2(C)C1C(=O)CO (stereo not drawn)
19,192 to 195,CC(Cn1ccnn1)n1nnc2cc3c(=O)n(C(C)Cn4ccnn4)nnc3cc2c1=O (stereo not drawn)
20,130 to 132,CCCn1c2cc(C)ccc2c2oc(C(=O)Cl)cc21
21,77 to 80,CCCc1c(O)c(C(C)=O)cc(Cl)c1OCCCCCOc1c(C(C)=O)ccc(OCC(=O)O)c1CCC
